Experimental data as given in paper PMC5361737, “Potent and Selective KDM5 Inhibitor Stops Cellular Demethylation of H3K4me3 at Transcription Start Sites and Proliferation of MM1S Myeloma Cells” (Cell Chemical Biology, 2017).
Entries after “also recorded” stand apart in the source; their conditions may differ.

Assays:
M2 (h) = M2 (h) (Homo sapiens, UniProt P08172); assay: Cerep Express Panel, antagonist radioligand; assay type: binding; conditions: read-out: % Inhibition of reference (10 µM)
ETA (h) = ETA (h) (Homo sapiens, UniProt P25101); assay: Cerep Express Panel, agonist radioligand; assay type: binding; conditions: read-out: % Inhibition of reference (10 µM)
V1a (h) = V1a (h) (Homo sapiens, UniProt P37288); assay: Cerep Express Panel, agonist radioligand; assay type: binding; conditions: read-out: % Inhibition of reference (10 µM)
5-HT transporter (h) = biological target: T1, 5-HT transporter (h) (Homo sapiens, UniProt P31645); assay: Cerep Express Panel, antagonist radioligand; assay type: binding; conditions: read-out: % Inhibition of reference (10 µM)
T1 construct: CEREP

[1] = system: cell line derived from human mesenchymal stem cells; assay: Cell viability, mesenchymal stem cells; assay type: cell-based; conditions: treated for 7 days
Source text: Figure S2 related to Figure 1 KDM5B Biochemical assay at different 2 -OG
Stem Cells (B) treated for 7 days. Data plotted represents the mean and standard deviation of four independent
2OG Concentration IC50 (mM) Ki […]

kappa (KOP) = kappa (KOP) (Rattus norvegicus, UniProt P34975); assay: Cerep Express Panel, agonist radioligand; assay type: binding; conditions: read-out: % Inhibition of reference (10 µM)
other 2-OG oxygenases = assay: Selectivity panel, other 2-OG oxygenases (AlphaScreen or MALDI-TOF); assay type: biochemical; conditions: AlphaScreen or MALDI-TOF enzymatic assays; read-out: no inhibition below (any of the other 2-OG oxygenases)
5-HT2B (h) = 5-HT2B (h) (Homo sapiens, UniProt P41595); assay: Cerep Express Panel, agonist radioligand; assay type: binding; conditions: read-out: % Inhibition of reference (10 µM)
delta 2 (DOP) (h) = delta 2 (DOP) (h) (Homo sapiens, UniProt P41143); assay: Cerep Express Panel, agonist radioligand; assay type: binding; conditions: read-out: % Inhibition of reference (10 µM)
[2] = system: KDM5A and KDM5C (other KDM5 family members); assay: IF assay, HeLa cells overexpressing the other KDM5 family members; assay type: cell-based, human; conditions: overexpression IF assay, 24 hr, read-out: inhibitory concentration, other KDM5 family members
Source text: The human cervical carcinoma cell line HeLa was obtained from the American Type Cultures Collection and maintained in Eagle's minimal essential media (Sigma-Aldrich) supplemented with 10% heat-inactivated fetal bovine serum (Life Technologies). Full-length cDNA for KDM5B (JARID1B, Q9UGL1, cDNA), KDM5C (JARID1C, P41229, IMAGE 5492114), KDM4B (JMJD2B, O94953, gift from ICR), KDM4C (JMJD2C, Q9H3R0, 8143862), KDM3A (JMJD1A, Q9Y4C1, 4823253), KDM2A (FBXL11, Q9Y2K7, 5534384), and KDM6B (JMJD3, O15054, cDNA) were amplified by PCR from either an MGC clone or a commercial cDNA source, or received as a gift from collaborators and cloned into pDONR-221 vector using Gateway BP reaction producing Gateway entry clones.
[…]. Mutations were introduced into full-length KDM Gateway entry clones using 15 cycles of the QuikChange II PCR protocol (Agilent Technologies). […]
In brief, cells were transiently transfected with either the FLAG-tagged WT or mutant demethylase described above, using Lipofectamine 2000 (Life Technologies). […] After the DAPI-stained nuclei were automatically identified, a minimum threshold for anti-FLAG intensity was set so that only cells highly expressing the demethylase were analyzed. […]

KV channel = assay: Cerep Express Panel, antagonist radioligand; assay type: binding
5-HT7 (h) = 5-HT7 (h) (Homo sapiens, UniProt P34969); assay: Cerep Express Panel, agonist radioligand; assay type: binding; conditions: read-out: % Inhibition of reference (10 µM)
alpha 1 (non-selective) = assay: Cerep Express Panel, antagonist radioligand; assay type: binding
GAL2 (h) = GAL2 (h) (Homo sapiens, UniProt O43603); assay: Cerep Express Panel, agonist radioligand; assay type: binding; conditions: read-out: % Inhibition of reference (10 µM)
EGLN1 = EGLN1 (Homo sapiens, UniProt Q9GZT9); assay: 2-Oxoglutarate oxygenase assay panel, MALDI-TOF assay; assay type: biochemical; conditions: read-out: pIC50 EGLN1 (converted)
PAMPA = assay type: in vitro ADME
CXCR2 (IL-8B) (h) = biological target: T2, CXCR2 (IL-8B) (h) (Homo sapiens, UniProt P25025); assay: Cerep Express Panel, agonist radioligand; assay type: binding; conditions: read-out: % Inhibition of reference (10 µM)
T2 sequence (P25025 1-360): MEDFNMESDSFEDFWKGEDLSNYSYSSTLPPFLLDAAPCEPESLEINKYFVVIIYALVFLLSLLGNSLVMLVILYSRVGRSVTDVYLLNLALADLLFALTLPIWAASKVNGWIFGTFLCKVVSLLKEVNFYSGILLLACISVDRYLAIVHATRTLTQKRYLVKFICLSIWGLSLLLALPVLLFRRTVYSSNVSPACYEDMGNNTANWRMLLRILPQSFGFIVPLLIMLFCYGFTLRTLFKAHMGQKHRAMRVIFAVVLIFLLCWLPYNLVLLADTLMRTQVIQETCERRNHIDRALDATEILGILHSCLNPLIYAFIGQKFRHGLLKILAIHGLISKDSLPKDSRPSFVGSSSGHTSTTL

[3] = Chemical stability in Phosphate Buffer Saline; assay type: physicochemical; conditions: PBS, 37°C, 24 hr

5-HT2B (h), sequence (P41595 whole entry): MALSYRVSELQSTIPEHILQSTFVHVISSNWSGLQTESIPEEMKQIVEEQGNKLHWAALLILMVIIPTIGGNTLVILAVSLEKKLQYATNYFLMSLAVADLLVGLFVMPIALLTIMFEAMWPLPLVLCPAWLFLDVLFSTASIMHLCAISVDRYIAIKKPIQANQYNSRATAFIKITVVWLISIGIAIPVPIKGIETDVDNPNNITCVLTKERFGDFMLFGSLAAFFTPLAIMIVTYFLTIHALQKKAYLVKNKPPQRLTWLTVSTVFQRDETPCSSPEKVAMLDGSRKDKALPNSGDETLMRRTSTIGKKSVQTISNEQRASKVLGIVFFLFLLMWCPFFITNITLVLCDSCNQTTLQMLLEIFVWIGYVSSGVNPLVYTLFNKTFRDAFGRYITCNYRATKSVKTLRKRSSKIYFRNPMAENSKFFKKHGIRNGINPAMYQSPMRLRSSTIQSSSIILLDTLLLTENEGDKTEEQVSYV
5-HT7 (h), sequence (P34969 whole entry): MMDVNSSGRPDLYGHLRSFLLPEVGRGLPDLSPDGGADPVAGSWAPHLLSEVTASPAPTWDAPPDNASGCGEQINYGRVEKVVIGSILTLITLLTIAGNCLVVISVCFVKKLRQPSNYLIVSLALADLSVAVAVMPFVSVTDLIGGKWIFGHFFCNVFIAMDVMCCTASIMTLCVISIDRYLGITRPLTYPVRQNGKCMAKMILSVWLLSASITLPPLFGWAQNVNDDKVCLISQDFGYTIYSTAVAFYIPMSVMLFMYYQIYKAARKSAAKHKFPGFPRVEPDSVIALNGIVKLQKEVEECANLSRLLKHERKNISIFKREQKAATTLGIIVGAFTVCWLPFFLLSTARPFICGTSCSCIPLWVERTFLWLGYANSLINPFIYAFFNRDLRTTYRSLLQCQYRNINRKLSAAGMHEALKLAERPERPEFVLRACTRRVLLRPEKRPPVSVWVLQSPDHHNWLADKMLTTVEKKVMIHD
delta 2 (DOP) (h), sequence (P41143 whole entry): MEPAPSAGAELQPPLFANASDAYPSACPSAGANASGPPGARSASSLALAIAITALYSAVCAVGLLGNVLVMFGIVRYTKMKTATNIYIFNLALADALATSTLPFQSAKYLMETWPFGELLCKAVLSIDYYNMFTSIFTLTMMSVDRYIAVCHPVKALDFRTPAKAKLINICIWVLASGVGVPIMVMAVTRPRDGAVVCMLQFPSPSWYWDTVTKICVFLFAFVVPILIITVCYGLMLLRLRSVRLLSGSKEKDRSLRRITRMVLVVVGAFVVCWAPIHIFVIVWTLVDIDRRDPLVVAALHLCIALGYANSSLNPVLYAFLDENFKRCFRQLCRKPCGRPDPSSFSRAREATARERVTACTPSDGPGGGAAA
ETA (h), sequence (P25101 21-427): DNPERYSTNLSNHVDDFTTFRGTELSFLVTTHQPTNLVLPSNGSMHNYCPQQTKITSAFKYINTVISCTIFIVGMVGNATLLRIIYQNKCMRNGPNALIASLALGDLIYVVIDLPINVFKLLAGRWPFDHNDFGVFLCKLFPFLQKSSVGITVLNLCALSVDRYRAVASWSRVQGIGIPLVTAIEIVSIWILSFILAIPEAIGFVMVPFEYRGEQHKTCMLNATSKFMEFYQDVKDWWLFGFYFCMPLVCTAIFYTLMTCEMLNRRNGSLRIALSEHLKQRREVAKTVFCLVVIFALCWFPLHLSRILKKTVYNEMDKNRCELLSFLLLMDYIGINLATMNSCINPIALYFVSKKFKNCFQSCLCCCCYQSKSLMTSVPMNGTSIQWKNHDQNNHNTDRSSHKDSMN
M2 (h), sequence (P08172 whole entry): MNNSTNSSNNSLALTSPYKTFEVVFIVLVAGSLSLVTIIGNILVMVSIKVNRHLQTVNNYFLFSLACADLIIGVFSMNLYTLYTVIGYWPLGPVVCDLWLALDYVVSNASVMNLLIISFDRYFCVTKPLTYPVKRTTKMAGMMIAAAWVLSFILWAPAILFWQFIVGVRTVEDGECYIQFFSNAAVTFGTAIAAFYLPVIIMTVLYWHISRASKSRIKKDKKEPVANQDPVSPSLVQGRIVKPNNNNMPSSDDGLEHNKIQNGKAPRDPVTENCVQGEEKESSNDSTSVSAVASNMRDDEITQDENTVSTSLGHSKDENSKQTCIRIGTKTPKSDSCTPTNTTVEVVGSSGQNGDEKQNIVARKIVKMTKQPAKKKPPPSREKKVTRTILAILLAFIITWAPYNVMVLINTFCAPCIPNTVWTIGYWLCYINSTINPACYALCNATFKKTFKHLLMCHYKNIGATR
V1a (h), sequence (P37288 whole entry): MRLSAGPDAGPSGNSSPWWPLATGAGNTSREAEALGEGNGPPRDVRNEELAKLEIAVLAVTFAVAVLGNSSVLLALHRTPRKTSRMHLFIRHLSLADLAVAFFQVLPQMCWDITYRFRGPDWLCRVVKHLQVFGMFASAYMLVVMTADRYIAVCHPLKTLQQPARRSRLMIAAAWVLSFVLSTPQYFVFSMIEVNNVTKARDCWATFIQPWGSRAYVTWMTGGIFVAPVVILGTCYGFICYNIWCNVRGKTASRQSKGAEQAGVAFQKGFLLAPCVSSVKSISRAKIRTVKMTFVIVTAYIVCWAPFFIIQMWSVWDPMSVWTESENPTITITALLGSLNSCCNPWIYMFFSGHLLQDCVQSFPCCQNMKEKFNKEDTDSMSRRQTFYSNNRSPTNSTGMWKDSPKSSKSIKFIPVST
GAL2 (h), sequence (O43603 whole entry): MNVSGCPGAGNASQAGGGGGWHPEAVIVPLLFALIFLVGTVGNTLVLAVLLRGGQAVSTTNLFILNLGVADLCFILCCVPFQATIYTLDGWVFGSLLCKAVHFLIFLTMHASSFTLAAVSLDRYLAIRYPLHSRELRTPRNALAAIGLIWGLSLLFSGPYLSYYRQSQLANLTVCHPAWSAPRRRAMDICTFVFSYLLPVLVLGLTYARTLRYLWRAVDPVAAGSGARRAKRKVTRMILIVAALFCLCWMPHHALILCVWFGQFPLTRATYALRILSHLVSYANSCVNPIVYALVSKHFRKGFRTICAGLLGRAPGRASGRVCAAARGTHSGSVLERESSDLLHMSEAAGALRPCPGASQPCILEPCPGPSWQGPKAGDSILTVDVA
EGLN1, sequence (Q9GZT9 whole entry, species assumed): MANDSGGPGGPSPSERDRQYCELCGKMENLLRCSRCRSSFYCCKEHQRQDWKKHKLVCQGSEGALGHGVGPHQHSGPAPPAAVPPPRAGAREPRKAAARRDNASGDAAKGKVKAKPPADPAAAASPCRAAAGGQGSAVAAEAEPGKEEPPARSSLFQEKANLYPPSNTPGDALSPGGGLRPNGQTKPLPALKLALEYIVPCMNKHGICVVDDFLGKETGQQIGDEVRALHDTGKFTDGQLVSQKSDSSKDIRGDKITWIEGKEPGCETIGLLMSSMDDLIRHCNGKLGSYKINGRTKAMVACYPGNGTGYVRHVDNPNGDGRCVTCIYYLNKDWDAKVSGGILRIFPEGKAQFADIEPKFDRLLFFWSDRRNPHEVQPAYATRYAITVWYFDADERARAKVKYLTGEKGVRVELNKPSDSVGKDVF
kappa (KOP), sequence (P34975 whole entry): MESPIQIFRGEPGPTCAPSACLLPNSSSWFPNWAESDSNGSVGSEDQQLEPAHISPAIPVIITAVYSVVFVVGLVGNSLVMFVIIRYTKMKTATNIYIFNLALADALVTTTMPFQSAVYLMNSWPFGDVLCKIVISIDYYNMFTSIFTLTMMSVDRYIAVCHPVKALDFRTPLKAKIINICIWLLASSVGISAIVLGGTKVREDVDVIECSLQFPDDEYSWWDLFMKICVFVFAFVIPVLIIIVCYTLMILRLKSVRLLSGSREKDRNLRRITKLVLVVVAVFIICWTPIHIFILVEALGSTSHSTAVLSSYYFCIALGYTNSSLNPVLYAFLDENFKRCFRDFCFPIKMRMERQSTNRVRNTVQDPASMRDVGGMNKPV
T1 sequence (P31645 whole entry): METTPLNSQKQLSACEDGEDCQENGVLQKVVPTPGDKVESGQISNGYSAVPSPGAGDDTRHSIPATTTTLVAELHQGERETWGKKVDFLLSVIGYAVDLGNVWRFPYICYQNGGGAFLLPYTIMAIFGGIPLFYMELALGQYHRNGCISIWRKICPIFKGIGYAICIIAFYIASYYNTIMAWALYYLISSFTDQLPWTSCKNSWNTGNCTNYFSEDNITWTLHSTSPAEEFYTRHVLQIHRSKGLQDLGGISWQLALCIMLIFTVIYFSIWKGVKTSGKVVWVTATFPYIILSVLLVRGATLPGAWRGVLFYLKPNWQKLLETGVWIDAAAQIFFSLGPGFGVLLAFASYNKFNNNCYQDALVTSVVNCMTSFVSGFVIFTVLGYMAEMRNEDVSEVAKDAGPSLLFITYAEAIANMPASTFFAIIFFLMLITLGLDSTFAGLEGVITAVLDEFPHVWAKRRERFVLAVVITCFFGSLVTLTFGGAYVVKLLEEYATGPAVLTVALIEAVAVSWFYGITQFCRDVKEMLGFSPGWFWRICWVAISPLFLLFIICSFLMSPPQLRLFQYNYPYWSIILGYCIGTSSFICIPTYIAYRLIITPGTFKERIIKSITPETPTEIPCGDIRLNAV

Work on `CCN(CCN(C)C)C(=O)CNCc1cc(C(N)=O)ccn1` [KDOAM-25] yielded an inhibition at 10 µM (M2 (h)) of -3%, an inhibition at 10 µM (ETA (h)) of -6% and an inhibition at 10 µM (V1a (h)) of -4%. The inhibition at 10 µM (5-HT transporter (h)) was -2%, the “effect on viability of mesenchymal stem cells” value [1] was “does not decrease cell viability; also recorded: did not show the same decrease in viability” and the inhibition at 10 µM (kappa (KOP)) was -3%. For the same compound, the IC50 (other 2-OG oxygenases) was no less than 4.8 µM, the inhibition at 10 µM (5-HT2B (h)) was 17% and the inhibition at 10 µM (delta 2 (DOP) (h)) was 2%. The IC50 [2] was greater than 100 µM, the “% Inhibition of reference (10 µM)” value (KV channel) was -4% and the inhibition at 10 µM (5-HT7 (h)) was -10%. For the same compound, the “% Inhibition of reference (10 µM)” value (alpha 1 (non-selective)) was -15%, the inhibition at 10 µM (GAL2 (h)) was -4% and the IC50 (EGLN1) was greater than 100 µM. For the same compound, the “PAMPA pH 5” value (PAMPA; pH 5) was less than 0.3, the “PAMPA pH 6.5” value (PAMPA; pH 6.5) was less than 0.23 and the “PAMPA pH 7.4” value (PAMPA; pH 7.4) was less than 0.23. For the same compound, the inhibition at 10 µM (CXCR2 (IL-8B) (h)) was 5% and the “hydrolysis of the amide, in words” value [3] was “did not show any hydrolysis”.
